Data reported in ChEMBL document CHEMBL4811245, “Design, synthesis and biological evaluation of brain penetrant benzazepine-based histone deacetylase 6 inhibitors for alleviating stroke-induced brain infarction” (Eur J Med Chem, 2021).
Calls of active or inactive are those of the source. The rule behind the calls is not given here.

Tests used:
Histone deacetylase 1 = Histone deacetylase 1 (Homo sapiens, UniProt Q13547); assay: Inhibition of human HDAC1 preincubated for 15 mins followed by substrate addition by fluorescence-based assay
in vivo [1] = settings: C57, mouse, brain/plasma, ip, 20 mg/kg
[2] = Drug concentration in brain of C57 mouse at 20 mg/kg, ip measured after 1 hr by LC/MS-MS analysis; assay type: ADME, organism-based; settings: read-out: Ct
[3] = Drug concentration in plasma of C57 mouse at 20 mg/kg, ip measured after 4 hrs by LC/MS-MS analysis; assay type: ADME, organism-based
[4] = Drug concentration in plasma of C57 mouse at 20 mg/kg, ip measured after 1 hr by LC/MS-MS analysis; assay type: ADME, organism-based
in vivo [5] = settings: C57, mouse, brain/plasma, ip, 20 mg/kg; remark: listed apart in the source
Rattus norvegicus [6] = assay: Neuroprotective activity in Sprague-Dawley rat middle cerebral artery occlusion model assessed as reduction in neurobehavioral defects at 25 mg/kg, ip after 24 hrs by TTC staining based assay; assay type: functional, organism-based
[7] = Drug concentration in brain of C57 mouse at 20 mg/kg, ip measured after 4 hrs by LC/MS-MS analysis; assay type: ADME, organism-based; settings: read-out: Ct
[8] = Ratio of drug concentration in brain to plasma of mouse at 5 to 50 mg/kg, ip after 2 hrs by HPLC/MS-MS analysis; assay type: ADME, organism-based; settings: dose 5-50 mg/kg, read-out: BPR
Rattus norvegicus [9] = assay: Neuroprotective activity in Sprague-Dawley rat middle cerebral artery occlusion model assessed as reduction in cerebral infarction at 25 mg/kg, ip after 24 hrs by TTC staining based assay (reference value: 21.22%); assay type: functional; design: scale not given: the % may be the effect or the level left
[10] = molecular target: T1, Protein deacetylase HDAC6 (Homo sapiens) (UniProt Q9UBN7); assay: Inhibition of HDAC6 in human SH-SY5Y cells assessed as increase in acetylated alpha-tubulin levels incubated for 24 hrs by Western blot analysis; assay type: cell-based; settings: dose 0.1-10 µM
T1 sequence (whole entry): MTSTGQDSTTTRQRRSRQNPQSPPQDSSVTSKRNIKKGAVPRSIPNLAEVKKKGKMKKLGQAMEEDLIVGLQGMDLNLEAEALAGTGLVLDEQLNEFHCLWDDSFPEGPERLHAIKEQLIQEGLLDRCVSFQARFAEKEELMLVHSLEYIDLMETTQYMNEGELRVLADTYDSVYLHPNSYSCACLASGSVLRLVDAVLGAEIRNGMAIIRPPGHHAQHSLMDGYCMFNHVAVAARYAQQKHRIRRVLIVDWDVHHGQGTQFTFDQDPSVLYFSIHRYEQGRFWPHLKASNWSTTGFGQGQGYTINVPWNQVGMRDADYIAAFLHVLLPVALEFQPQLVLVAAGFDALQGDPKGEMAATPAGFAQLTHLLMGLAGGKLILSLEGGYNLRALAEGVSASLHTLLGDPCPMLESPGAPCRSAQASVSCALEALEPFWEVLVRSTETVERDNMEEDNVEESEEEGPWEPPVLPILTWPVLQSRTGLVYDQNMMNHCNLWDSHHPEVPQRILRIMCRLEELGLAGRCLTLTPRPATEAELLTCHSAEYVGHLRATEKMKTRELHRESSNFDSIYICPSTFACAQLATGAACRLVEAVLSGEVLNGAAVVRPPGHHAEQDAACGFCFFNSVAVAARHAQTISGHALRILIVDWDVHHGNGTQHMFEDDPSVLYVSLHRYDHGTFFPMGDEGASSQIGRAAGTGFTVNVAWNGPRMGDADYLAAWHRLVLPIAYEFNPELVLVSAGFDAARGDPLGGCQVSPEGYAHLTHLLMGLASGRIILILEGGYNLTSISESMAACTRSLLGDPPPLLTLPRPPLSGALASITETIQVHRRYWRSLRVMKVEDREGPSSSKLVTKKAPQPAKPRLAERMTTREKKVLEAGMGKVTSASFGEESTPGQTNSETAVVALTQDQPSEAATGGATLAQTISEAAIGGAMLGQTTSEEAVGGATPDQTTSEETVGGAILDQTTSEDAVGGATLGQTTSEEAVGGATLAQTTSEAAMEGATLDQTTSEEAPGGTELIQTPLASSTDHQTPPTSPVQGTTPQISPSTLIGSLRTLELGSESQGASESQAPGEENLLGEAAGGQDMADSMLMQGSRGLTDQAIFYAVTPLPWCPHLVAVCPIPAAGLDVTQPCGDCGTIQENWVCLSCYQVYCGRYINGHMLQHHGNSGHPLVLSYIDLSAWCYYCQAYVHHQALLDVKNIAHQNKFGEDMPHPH

[11] = molecular target: T1, Protein deacetylase HDAC6 (Homo sapiens); assay: Inhibition of HDAC6 in human SH-SY5Y cells assessed as fold increase in ratio of acetylated alpha-tubulin to alpha-tubulin at 1 uM incubated for 24 hrs by Western blot analysis; assay type: cell-based
[12] = molecular target: T1, Protein deacetylase HDAC6 (Homo sapiens); assay: Inhibition of HDAC6 in human SH-SY5Y cells assessed as increase in acetylated histone H3 levels at 0.1 to 10 uM incubated for 24 hrs by Western blot analysis; assay type: cell-based; settings: dose 0.1-10 µM
[13] = molecular target: T1, Protein deacetylase HDAC6 (Homo sapiens); assay: Inhibition of HDAC6 in human SH-SY5Y cells assessed as fold increase in ratio of acetylated histone H3 to histone H3 at 10 uM incubated for 24 hrs by Western blot analysis; assay type: cell-based
[14] = molecular target: T2, Protein deacetylase HDAC6 (Homo sapiens, UniProt Q9UBN7); assay: Inhibition of human HDAC6 preincubated for 15 mins followed by substrate addition by fluorescence-based assay
T2 sequence (Q9UBN7 whole entry): T1 sequence (whole entry)

[15] = molecular target: T1, Protein deacetylase HDAC6 (Homo sapiens); assay: Inhibition of HDAC6 in human SH-SY5Y cells assessed as fold increase in ratio of acetylated alpha-tubulin to alpha-tubulin at 10 uM incubated for 24 hrs by Western blot analysis; assay type: cell-based
[16] = Ratio of drug concentration in brain to plasma of Sprague-Dawley rat at 50 mg/kg, po measured after 60 to 180 mins by LC/MS-MS analysis; assay type: ADME, organism-based; settings: time 60-180 min
Rattus norvegicus [17] = assay: Neuroprotective activity in Sprague-Dawley rat middle cerebral artery occlusion model assessed as reduction in neurobehavioral defects at 5 mg/kg, ip after 24 hrs by TTC staining based assay; assay type: functional, organism-based

Histone deacetylase 1, sequence (Q13547 whole entry): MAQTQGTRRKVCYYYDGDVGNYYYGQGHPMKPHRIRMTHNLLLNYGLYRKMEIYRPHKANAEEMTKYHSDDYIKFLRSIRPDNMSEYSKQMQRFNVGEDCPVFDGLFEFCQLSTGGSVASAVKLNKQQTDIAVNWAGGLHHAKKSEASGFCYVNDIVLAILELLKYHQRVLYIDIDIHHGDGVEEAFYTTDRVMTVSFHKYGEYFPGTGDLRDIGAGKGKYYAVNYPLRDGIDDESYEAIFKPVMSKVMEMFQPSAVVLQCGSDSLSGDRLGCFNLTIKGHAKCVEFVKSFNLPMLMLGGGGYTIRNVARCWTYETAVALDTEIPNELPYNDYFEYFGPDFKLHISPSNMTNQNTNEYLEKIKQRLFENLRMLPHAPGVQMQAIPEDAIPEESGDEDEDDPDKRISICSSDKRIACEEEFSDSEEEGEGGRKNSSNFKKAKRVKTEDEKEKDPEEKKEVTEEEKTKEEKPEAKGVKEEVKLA

O=C(NO)c1ccc(CN2CCCCc3ccc(-c4ccccc4)cc32)cc1
IC50 (Histone deacetylase 1): 706 nM

COc1ccc2c(c1)N(Cc1ccc(C(=O)NO)cc1)CCCC2
Kp at 1 h (in vivo [1]): 1.85
concentration at 1 h [2]: 957 ng/mL
concentration at 4 h [3]: 8.18 ng/mL
concentration at 1 h [4]: 526 ng/mL
Kp at 4 h (in vivo [5]): 2.29
Activity (Rattus norvegicus [6]): Active
concentration at 4 h [7]: 18.7 ng/mL

O=C(NO)c1cnc(NC2(c3ccccc3)CC2)nc1
Kp at 2 h [8]: 1.22

CN1CCc2c(c3ccccc3n2Cc2ccc(C(=O)NO)cc2)C1 [TUBASTATIN A]
Activity (Rattus norvegicus [9]): 13.02%
Activity (Rattus norvegicus [6]): Active
Kp at 2 h [8]: 0.18

O=C(NO)c1cnc(NC2(c3cccc(F)c3)CCCCC2)nc1
Kp at 2 h [8]: 1.26

O=C(NO)c1ccc(CN2CCCc3cc(Cl)ccc32)cc1
concentration at 1 h [2]: 468 ng/mL
concentration at 4 h [3]: 4.13 ng/mL
concentration at 1 h [4]: 256 ng/mL
concentration at 4 h [7]: 13.1 ng/mL

COc1ccc(C2CC2)c2c1CCN(Cc1ccc(C(=O)NO)cc1)CC2
IC50 (Histone deacetylase 1): 502 nM

O=C(NO)c1ccc(CN2CCCSc3ccccc32)cc1
Kp at 1 h (in vivo [1]): 2.3
inhibition [10]: Dose-Dependent Effect
FC [11]: 1.3
inhibition [12]: Active
concentration at 1 h [2]: 220 ng/mL
FC [13]: 1.1
Activity (Rattus norvegicus [9]): 11.47%
concentration at 4 h [3]: 7.03 ng/mL
concentration at 1 h [4]: 96.1 ng/mL
Kp at 4 h (in vivo [5]): 2.35
Activity (Rattus norvegicus [6]): Active
concentration at 4 h [7]: 16.6 ng/mL
IC50 [14]: 1.8 nM
FC [15]: 1.4

O=C(NO)c1ccc(CN2CCCCc3ccc(F)cc32)cc1
IC50 [14]: 19 nM
IC50 (Histone deacetylase 1): 761 nM

O=C(NO)c1ccc(CNc2cccc3cccnc23)cc1
Kp [16]: 1.01

O=C(NO)c1ccc(CN2CCC[S+]([O-])c3ccccc32)cc1 (stereo not given)
IC50 [14]: 13 nM
IC50 (Histone deacetylase 1): 166 nM

O=C(NO)c1ccc(CN2CCCCc3cc(Cl)ccc32)cc1
IC50 [14]: 37 nM
IC50 (Histone deacetylase 1): 819 nM

COc1ccc(Br)c2c1CCN(Cc1ccc(C(=O)NO)cc1)CC2
IC50 [14]: 111 nM
IC50 (Histone deacetylase 1): 385 nM

O=C(NO)c1ccc(CN2CCCOc3ccccc32)cc1
Kp at 1 h (in vivo [1]): 1.98
concentration at 1 h [2]: 111 ng/mL
concentration at 4 h [3]: 4.29 ng/mL
concentration at 1 h [4]: 59.4 ng/mL
Kp at 4 h (in vivo [5]): 2.88
concentration at 4 h [7]: 12.2 ng/mL

O=C(NO)c1ccc(CN2CCCCc3ccccc32)cc1
IC50 [14]: 6.4 nM
IC50 (Histone deacetylase 1): 392 nM

O=C(NO)c1ccc(CN2CCCCc3ccc(C4CC4)cc32)cc1
IC50 (Histone deacetylase 1): 509 nM

O=C(NO)c1ccc(CN2CCc3ccccc3CC2)cc1
IC50 [14]: 255 nM
IC50 (Histone deacetylase 1): 804 nM

COc1ccc2c(c1)CCN(Cc1ccc(C(=O)NO)cc1)CC2
IC50 [14]: 29 nM
IC50 (Histone deacetylase 1): 431 nM

CCCCC1OC(=O)c2ccccc21 (stereo not given)
Activity (Rattus norvegicus [17]): Active

COc1ccc(-c2ccccc2)c2c1CCN(Cc1ccc(C(=O)NO)cc1)CC2
IC50 [14]: 497 nM
IC50 (Histone deacetylase 1): 826 nM

COc1cccc2c1CCN(Cc1ccc(C(=O)NO)cc1)CC2
IC50 [14]: 318 nM
IC50 (Histone deacetylase 1): 798 nM

COc1cc2c(cc1OC)N(Cc1ccc(C(=O)NO)cc1)CCCC2
IC50 [14]: 14 nM
IC50 (Histone deacetylase 1): 295 nM

O=C(NO)c1ccc(CN2CCCc3ccccc3C2)cc1
IC50 [14]: 100 nM
IC50 (Histone deacetylase 1): 1000 nM

Cc1ccc2c(c1)N(Cc1ccc(C(=O)NO)cc1)CCCC2
IC50 [14]: 12 nM
IC50 (Histone deacetylase 1): 377 nM
